ChEMBL document CHEMBL5465560, “Selectivity Literature for EUbOPEN Chemogenomic Library” (2024)

Experiments:
[1] = target: T1, Prostaglandin G/H synthase 2 (Homo sapiens) (UniProt P35354); assay: Selectivity interaction (Panel of non-epigenetic targets (kinases, GPCRs, ion channels, and transporters, Eurofins) ) EUB0000271b PTGS2; conditions: at 1 µM
T1 sequence (whole entry): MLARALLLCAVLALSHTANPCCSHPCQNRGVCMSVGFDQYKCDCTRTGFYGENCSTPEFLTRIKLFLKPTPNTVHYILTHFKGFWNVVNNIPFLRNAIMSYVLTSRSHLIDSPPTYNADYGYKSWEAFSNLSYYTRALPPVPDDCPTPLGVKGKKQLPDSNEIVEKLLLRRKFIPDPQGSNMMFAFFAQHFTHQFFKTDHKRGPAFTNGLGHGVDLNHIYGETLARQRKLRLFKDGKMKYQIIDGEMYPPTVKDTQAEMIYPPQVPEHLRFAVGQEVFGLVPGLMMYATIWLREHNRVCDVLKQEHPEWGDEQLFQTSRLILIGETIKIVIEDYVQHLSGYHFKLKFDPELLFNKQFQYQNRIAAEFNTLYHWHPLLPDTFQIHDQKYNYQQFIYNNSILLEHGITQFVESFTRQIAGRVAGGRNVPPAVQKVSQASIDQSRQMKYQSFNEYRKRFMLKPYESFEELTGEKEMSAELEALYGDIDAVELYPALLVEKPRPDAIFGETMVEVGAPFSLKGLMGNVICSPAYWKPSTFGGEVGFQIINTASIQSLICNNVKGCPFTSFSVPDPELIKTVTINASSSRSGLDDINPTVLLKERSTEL

[2] = target: Protein kinase C alpha type (Homo sapiens, UniProt P17252); assay: Selectivity interaction (Kinase panel (literature)) EUB0001199aCl PRKCA; conditions: at 1 µM
[3] = target: T2, Dual serine/threonine and tyrosine protein kinase (Homo sapiens) (UniProt Q6XUX3); assay: Selectivity interaction (KinomeScan (DiscoverX)) EUB0000618a DSTYK; conditions: at 10 µM
T2 sequence (whole entry): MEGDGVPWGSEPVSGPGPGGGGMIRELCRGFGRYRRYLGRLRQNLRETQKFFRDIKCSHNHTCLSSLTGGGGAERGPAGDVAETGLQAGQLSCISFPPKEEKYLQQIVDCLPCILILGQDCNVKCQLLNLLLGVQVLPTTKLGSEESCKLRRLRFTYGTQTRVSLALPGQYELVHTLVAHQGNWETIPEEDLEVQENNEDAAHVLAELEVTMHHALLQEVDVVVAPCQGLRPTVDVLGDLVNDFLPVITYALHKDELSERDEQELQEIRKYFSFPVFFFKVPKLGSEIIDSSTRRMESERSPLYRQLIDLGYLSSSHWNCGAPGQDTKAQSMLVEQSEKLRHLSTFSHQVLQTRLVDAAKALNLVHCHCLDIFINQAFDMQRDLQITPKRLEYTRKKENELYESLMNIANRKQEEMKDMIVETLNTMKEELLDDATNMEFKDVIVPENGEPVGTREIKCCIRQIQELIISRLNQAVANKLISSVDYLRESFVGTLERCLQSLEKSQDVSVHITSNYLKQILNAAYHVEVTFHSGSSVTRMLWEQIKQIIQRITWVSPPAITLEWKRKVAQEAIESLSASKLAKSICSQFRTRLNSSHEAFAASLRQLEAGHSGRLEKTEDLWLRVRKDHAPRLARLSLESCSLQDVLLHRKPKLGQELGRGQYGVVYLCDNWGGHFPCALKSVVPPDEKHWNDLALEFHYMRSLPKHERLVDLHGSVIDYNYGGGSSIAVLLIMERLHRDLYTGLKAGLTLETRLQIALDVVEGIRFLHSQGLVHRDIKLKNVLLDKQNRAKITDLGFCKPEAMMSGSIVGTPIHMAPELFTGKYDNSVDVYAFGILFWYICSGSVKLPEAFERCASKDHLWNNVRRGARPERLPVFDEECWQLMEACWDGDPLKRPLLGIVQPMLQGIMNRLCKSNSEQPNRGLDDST

[4] = target: Myosin light chain kinase 2, skeletal/cardiac muscle (Homo sapiens) (UniProt Q9H1R3); assay: Selectivity interaction (KinomeScan (DiscoverX)) EUB0000607a MYLK2; conditions: at 10 µM
Myosin light chain kinase 2, skeletal/cardiac muscle (Homo sapiens), sequence (Q9H1R3 whole entry): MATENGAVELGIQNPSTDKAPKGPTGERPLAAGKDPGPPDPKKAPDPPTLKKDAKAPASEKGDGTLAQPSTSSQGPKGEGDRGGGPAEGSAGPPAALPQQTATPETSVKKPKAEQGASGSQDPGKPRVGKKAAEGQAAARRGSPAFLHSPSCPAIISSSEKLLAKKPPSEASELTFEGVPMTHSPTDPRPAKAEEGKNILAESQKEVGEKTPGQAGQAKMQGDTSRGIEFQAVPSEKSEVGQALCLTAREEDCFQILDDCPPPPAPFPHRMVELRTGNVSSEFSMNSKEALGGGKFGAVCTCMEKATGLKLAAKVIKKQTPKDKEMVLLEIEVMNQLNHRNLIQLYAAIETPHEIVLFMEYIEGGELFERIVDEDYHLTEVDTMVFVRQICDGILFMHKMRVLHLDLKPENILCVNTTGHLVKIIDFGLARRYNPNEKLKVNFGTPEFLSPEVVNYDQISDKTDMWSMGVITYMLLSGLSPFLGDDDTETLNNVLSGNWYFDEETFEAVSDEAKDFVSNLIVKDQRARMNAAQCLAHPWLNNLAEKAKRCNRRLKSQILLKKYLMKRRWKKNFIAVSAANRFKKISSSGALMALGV

[5] = tested on: Tyrosine-protein kinase ABL1 (Homo sapiens), P00519 [E255K]; assay: (§1) Selectivity interaction (KinomeScan (DiscoverX)) EUB0000045b ABL1
[6] = tested on: Tyrosine-protein kinase ABL1 (Homo sapiens), P00519 [F317I]; assay: as §1
[7] = tested on: Tyrosine-protein kinase ABL1 (Homo sapiens), P00519 [F317L]; assay: as §1
[8] = tested on: Tyrosine-protein kinase ABL1 (Homo sapiens), P00519 [H396P]; assay: as §1
[9] = tested on: Tyrosine-protein kinase ABL1 (Homo sapiens), P00519 [M351T]; assay: as §1
[10] = tested on: Tyrosine-protein kinase ABL1 (Homo sapiens), P00519 [Q252H]; assay: as §1
[11] = tested on: Tyrosine-protein kinase ABL1 (Homo sapiens), P00519 [T315I]; assay: as §1
[12] = tested on: Tyrosine-protein kinase ABL1 (Homo sapiens), P00519 [Y253F]; assay: as §1
[13] = target: T3, Cyclin-dependent kinase-like 2 (Homo sapiens) (UniProt Q92772); assay: Selectivity interaction (KinomeScan (DiscoverX)) EUB0000045b CDKL2
T3 sequence (whole entry): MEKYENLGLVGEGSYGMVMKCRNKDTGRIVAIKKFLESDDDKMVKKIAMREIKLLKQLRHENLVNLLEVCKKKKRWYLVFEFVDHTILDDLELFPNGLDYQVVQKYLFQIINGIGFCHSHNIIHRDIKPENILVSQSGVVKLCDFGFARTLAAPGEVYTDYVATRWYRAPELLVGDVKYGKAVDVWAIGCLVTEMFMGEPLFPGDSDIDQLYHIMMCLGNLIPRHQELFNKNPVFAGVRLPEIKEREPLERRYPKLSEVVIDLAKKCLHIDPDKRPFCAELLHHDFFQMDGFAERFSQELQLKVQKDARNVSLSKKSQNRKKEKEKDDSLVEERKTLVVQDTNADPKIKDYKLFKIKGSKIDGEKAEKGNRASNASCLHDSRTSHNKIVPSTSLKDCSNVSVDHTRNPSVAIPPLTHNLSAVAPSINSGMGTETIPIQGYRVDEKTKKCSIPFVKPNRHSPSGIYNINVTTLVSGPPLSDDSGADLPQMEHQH

[14] = target: Receptor-interacting serine/threonine-protein kinase 2 (Homo sapiens, UniProt O43353); assay: Selectivity interaction (KinomeScan (DiscoverX)) EUB0000045b RIPK2
Receptor-interacting serine/threonine-protein kinase 2, sequence (O43353 whole entry): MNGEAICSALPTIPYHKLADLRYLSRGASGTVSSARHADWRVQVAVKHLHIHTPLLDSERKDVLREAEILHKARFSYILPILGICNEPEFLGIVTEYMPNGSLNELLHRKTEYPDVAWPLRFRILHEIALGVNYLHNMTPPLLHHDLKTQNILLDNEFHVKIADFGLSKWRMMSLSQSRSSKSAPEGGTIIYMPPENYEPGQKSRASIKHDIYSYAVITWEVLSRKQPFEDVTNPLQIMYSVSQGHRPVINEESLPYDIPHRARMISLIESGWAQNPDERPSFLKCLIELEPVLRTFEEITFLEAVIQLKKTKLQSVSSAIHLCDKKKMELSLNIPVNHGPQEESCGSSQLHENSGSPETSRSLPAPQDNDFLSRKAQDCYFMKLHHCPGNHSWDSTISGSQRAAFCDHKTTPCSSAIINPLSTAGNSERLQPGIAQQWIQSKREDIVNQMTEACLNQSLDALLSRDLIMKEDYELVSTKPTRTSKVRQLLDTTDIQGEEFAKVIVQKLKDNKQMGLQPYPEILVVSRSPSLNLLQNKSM

[15] = target: Proto-oncogene tyrosine-protein kinase ROS (Homo sapiens) (UniProt P08922); conditions: at 10 µM
Proto-oncogene tyrosine-protein kinase ROS (Homo sapiens), sequence (P08922 whole entry): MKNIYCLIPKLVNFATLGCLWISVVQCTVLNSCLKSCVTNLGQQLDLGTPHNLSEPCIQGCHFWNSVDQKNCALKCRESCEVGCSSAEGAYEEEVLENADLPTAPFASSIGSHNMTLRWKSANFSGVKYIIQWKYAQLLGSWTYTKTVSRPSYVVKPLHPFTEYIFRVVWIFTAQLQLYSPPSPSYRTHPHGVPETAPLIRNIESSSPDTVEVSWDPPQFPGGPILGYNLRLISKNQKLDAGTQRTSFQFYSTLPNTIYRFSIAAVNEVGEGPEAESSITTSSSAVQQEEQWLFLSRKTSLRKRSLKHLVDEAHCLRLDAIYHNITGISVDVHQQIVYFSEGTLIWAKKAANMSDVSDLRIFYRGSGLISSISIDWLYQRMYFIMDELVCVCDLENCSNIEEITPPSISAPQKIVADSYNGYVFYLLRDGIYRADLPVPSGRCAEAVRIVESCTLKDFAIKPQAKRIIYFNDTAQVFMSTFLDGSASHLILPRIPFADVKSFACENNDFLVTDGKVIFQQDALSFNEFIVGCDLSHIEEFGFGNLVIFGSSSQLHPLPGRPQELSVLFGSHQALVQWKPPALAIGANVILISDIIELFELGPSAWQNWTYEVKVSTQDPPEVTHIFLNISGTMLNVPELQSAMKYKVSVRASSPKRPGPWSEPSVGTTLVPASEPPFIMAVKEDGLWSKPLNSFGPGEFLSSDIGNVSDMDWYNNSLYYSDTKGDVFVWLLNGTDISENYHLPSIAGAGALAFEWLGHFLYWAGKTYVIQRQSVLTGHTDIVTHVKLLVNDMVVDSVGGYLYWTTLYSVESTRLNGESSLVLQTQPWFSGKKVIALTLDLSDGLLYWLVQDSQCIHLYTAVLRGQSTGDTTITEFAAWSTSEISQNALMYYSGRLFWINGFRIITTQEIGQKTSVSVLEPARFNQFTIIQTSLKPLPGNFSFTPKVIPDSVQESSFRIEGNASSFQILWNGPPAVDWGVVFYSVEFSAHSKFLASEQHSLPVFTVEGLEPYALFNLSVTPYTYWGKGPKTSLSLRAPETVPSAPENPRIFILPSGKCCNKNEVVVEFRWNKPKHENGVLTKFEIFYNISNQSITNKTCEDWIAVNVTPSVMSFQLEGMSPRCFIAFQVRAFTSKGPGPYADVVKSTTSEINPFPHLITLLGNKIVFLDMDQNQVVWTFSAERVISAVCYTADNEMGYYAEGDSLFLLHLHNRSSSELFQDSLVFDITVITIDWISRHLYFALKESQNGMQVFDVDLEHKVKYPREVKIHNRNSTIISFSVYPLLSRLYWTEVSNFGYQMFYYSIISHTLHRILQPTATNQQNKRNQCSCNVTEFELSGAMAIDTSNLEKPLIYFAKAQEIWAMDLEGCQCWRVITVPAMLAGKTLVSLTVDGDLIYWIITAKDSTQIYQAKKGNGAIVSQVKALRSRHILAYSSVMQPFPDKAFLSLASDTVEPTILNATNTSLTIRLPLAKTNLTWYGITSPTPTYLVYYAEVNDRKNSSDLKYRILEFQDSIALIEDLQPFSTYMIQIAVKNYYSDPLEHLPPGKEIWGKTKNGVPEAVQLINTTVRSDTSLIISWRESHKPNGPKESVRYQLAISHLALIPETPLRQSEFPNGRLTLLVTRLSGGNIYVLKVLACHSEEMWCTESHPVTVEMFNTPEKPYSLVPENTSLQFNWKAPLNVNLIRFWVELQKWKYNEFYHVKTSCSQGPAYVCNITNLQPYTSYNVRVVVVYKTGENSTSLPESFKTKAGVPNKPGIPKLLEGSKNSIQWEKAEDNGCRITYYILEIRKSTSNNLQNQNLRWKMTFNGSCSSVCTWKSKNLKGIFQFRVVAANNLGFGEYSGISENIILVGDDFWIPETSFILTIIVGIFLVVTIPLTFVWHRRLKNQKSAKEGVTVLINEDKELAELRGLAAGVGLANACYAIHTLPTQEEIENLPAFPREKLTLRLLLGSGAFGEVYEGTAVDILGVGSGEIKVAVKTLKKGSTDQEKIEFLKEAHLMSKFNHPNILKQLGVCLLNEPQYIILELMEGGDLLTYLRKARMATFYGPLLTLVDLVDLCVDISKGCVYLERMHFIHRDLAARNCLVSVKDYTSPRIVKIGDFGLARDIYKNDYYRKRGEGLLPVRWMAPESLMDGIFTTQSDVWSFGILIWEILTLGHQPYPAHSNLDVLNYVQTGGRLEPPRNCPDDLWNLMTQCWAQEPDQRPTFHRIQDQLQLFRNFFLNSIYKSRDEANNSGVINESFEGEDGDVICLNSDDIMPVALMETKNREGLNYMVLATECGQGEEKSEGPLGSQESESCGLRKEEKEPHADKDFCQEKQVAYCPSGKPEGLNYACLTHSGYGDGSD

[16] = target: Serine/threonine-protein kinase 33 (Homo sapiens) (UniProt Q9BYT3); assay: Selectivity interaction (ProQinase) EUB0000171b STK33
Serine/threonine-protein kinase 33 (Homo sapiens), sequence (Q9BYT3 whole entry, looked up): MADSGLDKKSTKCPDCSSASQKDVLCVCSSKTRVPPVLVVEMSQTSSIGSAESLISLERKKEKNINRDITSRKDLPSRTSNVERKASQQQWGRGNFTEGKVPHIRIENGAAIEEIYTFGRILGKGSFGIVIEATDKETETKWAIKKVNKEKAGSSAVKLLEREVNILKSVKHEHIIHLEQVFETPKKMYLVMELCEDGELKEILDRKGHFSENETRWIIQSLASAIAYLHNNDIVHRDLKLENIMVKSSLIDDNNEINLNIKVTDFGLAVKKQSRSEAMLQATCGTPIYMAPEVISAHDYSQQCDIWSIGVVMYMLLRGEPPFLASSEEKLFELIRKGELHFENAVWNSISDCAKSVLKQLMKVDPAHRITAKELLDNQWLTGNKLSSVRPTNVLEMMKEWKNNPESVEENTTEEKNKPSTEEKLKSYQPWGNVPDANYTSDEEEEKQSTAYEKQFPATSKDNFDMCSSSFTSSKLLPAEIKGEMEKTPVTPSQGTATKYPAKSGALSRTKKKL

Cc1cc(C)cc([C@@H]2c3cc(C)ccc3NC(=O)CN2C(=O)c2ccc(Br)s2)c1
% of inhibition [1]: 8%

CN1Cc2nccc(-c3cn(C)nc3-c3ccc(F)cc3)c2C1=O
% of inhibition [2]: -1%

O[C@H]1CC[C@H](Nc2ncc3nc(Nc4c(F)cc(F)cc4F)n([C@H]4CCOC4)c3n2)CC1
% of control [3]: 91%

CNC(=O)Nc1ccc(-c2nc(N3CC4CCC(C3)O4)c3cnn(C4CCC5(CC4)OCCO5)c3n2)cc1
% of control [4]: 100%

C=CC(=O)Nc1cc(-n2c(=O)ccc3cnc4ccc(-c5ccc(NS(C)(=O)=O)cc5)cc4c32)ccc1C
% of control ([5]; at 1 µM): 63%
% of control ([5]; at 10 µM): 77%
% of control ([6]; at 1 µM): 100%
% of control ([6]; at 10 µM): 100%
% of control ([7]; at 1 µM): 100%
% of control ([7]; at 10 µM): 100%
% of control ([8]; at 1 µM): 100%
% of control ([8]; at 10 µM): 100%
% of control ([9]; at 1 µM): 90%
% of control ([9]; at 10 µM): 86%
% of control ([10]; at 1 µM): 100%
% of control ([10]; at 10 µM): 100%
% of control ([11]; at 1 µM): 100%
% of control ([11]; at 10 µM): 100%
% of control ([12]; at 1 µM): 100%
% of control ([12]; at 10 µM): 76%
% of control ([13]; at 1 µM): 93%
% of control ([13]; at 10 µM): 93%
% of control ([14]; at 1 µM): 100%
% of control ([14]; at 10 µM): 92%

Cc1cc([C@@H](C)Nc2ccccc2C(=O)O)c2nc(N3CCOCC3)cc(=O)n2c1 [AZD-6482]
% of control [15]: 100%

C=CC(=O)Nc1cccc(C(=O)Nc2ccc(Nc3cc(-c4[nH]c(SC)nc4C)ccn3)cc2)c1
% of control ([16]; at 1 µM): 76%
% of control ([16]; at 5 µM): 71%
